Laboratory results taken from the supplement of paper PMC10307832.

Columns and labels:
Test in all cases: relative viability (nuclei count vs DMSO), 5 days (fraction); higher = more cells survive
NCI-H1915 = test system: NCI-H1915
Outline: (§1)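 A single step with final 0.05% Triton X-100, 1% formaldehyde and 1 ug/ml Hoechst fixed the cells and stained nuclei 5 days after treatment. Lung cancer cell lines in 1536-well plates had been treated by pin tool the day after seeding with one drug alone or a fixed anchor-drug dose plus five library-drug doses (not always all listed) in √10 steps, and nuclei were counted on 4× images. Relative viability is the ratio of nuclei in treated wells to nuclei in vehicle wells, taken as the median of duplicate plates.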

LCLC-97TM1 = test system: LCLC-97TM1
Outline: as §1

PC-14 = test system: PC-14
Outline: as §1

H3255 = test system: H3255
Outline: as §1

NCI-H2347 = test system: NCI-H2347
Outline: as §1

NCI-H647 = test system: NCI-H647
Outline: as §1

EPLC-272H = test system: EPLC-272H
Outline: as §1

ChaGo-K-1 = test system: ChaGo-K-1
Outline: as §1

NCI-H661 = test system: NCI-H661
Outline: as §1

RERF-LC-KJ = test system: RERF-LC-KJ
Outline: as §1

LC-2-ad = test system: LC-2-ad
Outline: as §1

NCI-H2087 = test system: NCI-H2087
Outline: as §1

NCI-H23 = test system: NCI-H23
Outline: as §1

201T = test system: 201T
Outline: as §1

NCI-H1666 = test system: NCI-H1666
Outline: as §1

HCC-827 = test system: HCC-827
Outline: as §1

NCI-H650 = test system: NCI-H650
Outline: as §1

NCI-H2126 = test system: NCI-H2126
Outline: as §1

NCI-H2405 = test system: NCI-H2405
Outline: as §1

COR-L 105 = test system: COR-L 105
Outline: as §1

NCI-H520 = test system: NCI-H520
Outline: as §1

HCC-78 = test system: HCC-78
Outline: as §1

## CC(=O)O[C@@]12CO[C@@H]1C[C@H](O)[C@@]1(C)C(=O)[C@H](O)C3=C(C)[C@@H](OC(=O)[C@H](O)[C@@H](NC(=O)OC(C)(C)C)c4ccccc4)C[C@@](O)([C@@H](OC(=O)c4ccccc4)[C@H]21)C3(C)C [Docetaxel] + COc1cc2c(Oc3ccc(NC(=O)C4(C(=O)Nc5ccc(F)cc5)CC4)cc3F)ccnc2cc1OCCCN1CCOCC1 [Foretinib] (partner 0.25 µM)
NCI-H1915; first compound 0.0002 µM
  relative viability: 1.15
NCI-H1915; first compound 0.000632 µM
  relative viability: 1.05
NCI-H1915; first compound 0.002 µM
  relative viability: 0.736
NCI-H1915; first compound 0.006325 µM
  relative viability: 0.262
NCI-H1915; first compound 0.02 µM
  relative viability: 0.179
LCLC-97TM1; first compound 0.0002 µM
  relative viability: 0.846
LCLC-97TM1; first compound 0.000632 µM
  relative viability: 0.641
LCLC-97TM1; first compound 0.002 µM
  relative viability: 0.697
LCLC-97TM1; first compound 0.006325 µM
  relative viability: 0.218
LCLC-97TM1; first compound 0.02 µM
  relative viability: 0.146
PC-14; first compound 0.0002 µM
  relative viability: 0.886
PC-14; first compound 0.000632 µM
  relative viability: 1.03
PC-14; first compound 0.002 µM
  relative viability: 0.576
PC-14; first compound 0.006325 µM
  relative viability: 0.117
PC-14; first compound 0.02 µM
  relative viability: 0.0977
H3255; first compound 0.0002 µM
  relative viability: 0.889
H3255; first compound 0.000632 µM
  relative viability: 0.909
H3255; first compound 0.002 µM
  relative viability: 0.66
H3255; first compound 0.006325 µM
  relative viability: 0.335
H3255; first compound 0.02 µM
  relative viability: 0.266
NCI-H2347; first compound 0.0002 µM
  relative viability: 0.806
NCI-H2347; first compound 0.000632 µM
  relative viability: 0.815
NCI-H2347; first compound 0.002 µM
  relative viability: 0.541
NCI-H2347; first compound 0.006325 µM
  relative viability: 0.31
NCI-H2347; first compound 0.02 µM
  relative viability: 0.368
NCI-H647; first compound 0.0002 µM
  relative viability: 1.25
NCI-H647; first compound 0.000632 µM
  relative viability: 1.06
NCI-H647; first compound 0.002 µM
  relative viability: 0.179
NCI-H647; first compound 0.006325 µM
  relative viability: 0.182
NCI-H647; first compound 0.02 µM
  relative viability: 0.111
EPLC-272H; first compound 0.0002 µM
  relative viability: 0.7
EPLC-272H; first compound 0.000632 µM
  relative viability: 0.278
EPLC-272H; first compound 0.002 µM
  relative viability: 0.249
EPLC-272H; first compound 0.006325 µM
  relative viability: 0.0711
EPLC-272H; first compound 0.02 µM
  relative viability: 0.0667
ChaGo-K-1; first compound 0.0002 µM
  relative viability: 0.89
ChaGo-K-1; first compound 0.000632 µM
  relative viability: 0.824
ChaGo-K-1; first compound 0.002 µM
  relative viability: 0.439
ChaGo-K-1; first compound 0.006325 µM
  relative viability: 0.329
ChaGo-K-1; first compound 0.02 µM
  relative viability: 0.174
NCI-H661; first compound 0.0002 µM
  relative viability: 0.989
NCI-H661; first compound 0.000632 µM
  relative viability: 1.02
NCI-H661; first compound 0.002 µM
  relative viability: 0.982
NCI-H661; first compound 0.006325 µM
  relative viability: 0.509
NCI-H661; first compound 0.02 µM
  relative viability: 0.496
RERF-LC-KJ; first compound 0.0002 µM
  relative viability: 0.882
RERF-LC-KJ; first compound 0.000632 µM
  relative viability: 0.898
RERF-LC-KJ; first compound 0.002 µM
  relative viability: 0.402
RERF-LC-KJ; first compound 0.006325 µM
  relative viability: 0.2
RERF-LC-KJ; first compound 0.02 µM
  relative viability: 0.203
LC-2-ad; first compound 0.0002 µM
  relative viability: 0.882
LC-2-ad; first compound 0.000632 µM
  relative viability: 0.494
LC-2-ad; first compound 0.002 µM
  relative viability: 0.441
LC-2-ad; first compound 0.006325 µM
  relative viability: 0.395
NCI-H2087; first compound 0.0002 µM
  relative viability: 0.955
NCI-H2087; first compound 0.000632 µM
  relative viability: 0.477
NCI-H2087; first compound 0.002 µM
  relative viability: 0.249
NCI-H2087; first compound 0.006325 µM
  relative viability: 0.115
NCI-H2087; first compound 0.02 µM
  relative viability: 0.105
NCI-H23; first compound 0.0002 µM
  relative viability: 0.964
NCI-H23; first compound 0.000632 µM
  relative viability: 0.859
NCI-H23; first compound 0.002 µM
  relative viability: 0.705
NCI-H23; first compound 0.006325 µM
  relative viability: 0.188
NCI-H23; first compound 0.02 µM
  relative viability: 0.147
201T; first compound 0.0002 µM
  relative viability: 1.15
201T; first compound 0.000632 µM
  relative viability: 0.712
201T; first compound 0.002 µM
  relative viability: 0.473
201T; first compound 0.006325 µM
  relative viability: 0.29
201T; first compound 0.02 µM
  relative viability: 0.213
NCI-H1666; first compound 0.0002 µM
  relative viability: 0.853
NCI-H1666; first compound 0.000632 µM
  relative viability: 0.628
NCI-H1666; first compound 0.002 µM
  relative viability: 0.633
NCI-H1666; first compound 0.006325 µM
  relative viability: 0.614
NCI-H1666; first compound 0.02 µM
  relative viability: 0.372
HCC-827; first compound 0.0002 µM
  relative viability: 1.03
HCC-827; first compound 0.000632 µM
  relative viability: 1
HCC-827; first compound 0.002 µM
  relative viability: 0.771
HCC-827; first compound 0.006325 µM
  relative viability: 0.362
HCC-827; first compound 0.02 µM
  relative viability: 0.291
NCI-H650; first compound 0.0002 µM
  relative viability: 0.958
NCI-H650; first compound 0.000632 µM
  relative viability: 0.921
NCI-H650; first compound 0.002 µM
  relative viability: 0.299
NCI-H650; first compound 0.006325 µM
  relative viability: 0.277
NCI-H650; first compound 0.02 µM
  relative viability: 0.218
NCI-H2126; first compound 0.0002 µM
  relative viability: 1.08
NCI-H2126; first compound 0.000632 µM
  relative viability: 1.14
NCI-H2126; first compound 0.002 µM
  relative viability: 0.588
NCI-H2126; first compound 0.006325 µM
  relative viability: 0.456
NCI-H2126; first compound 0.02 µM
  relative viability: 0.228
NCI-H2405; first compound 0.0002 µM
  relative viability: 1.05
NCI-H2405; first compound 0.000632 µM
  relative viability: 1
NCI-H2405; first compound 0.002 µM
  relative viability: 0.6
NCI-H2405; first compound 0.006325 µM
  relative viability: 0.402
NCI-H2405; first compound 0.02 µM
  relative viability: 0.306
COR-L 105; first compound 0.0002 µM
  relative viability: 0.986
COR-L 105; first compound 0.000632 µM
  relative viability: 0.95
COR-L 105; first compound 0.002 µM
  relative viability: 0.487
COR-L 105; first compound 0.006325 µM
  relative viability: 0.475
COR-L 105; first compound 0.02 µM
  relative viability: 0.331
NCI-H520; first compound 0.0002 µM
  relative viability: 0.708
NCI-H520; first compound 0.000632 µM
  relative viability: 0.808
NCI-H520; first compound 0.002 µM
  relative viability: 0.341
NCI-H520; first compound 0.006325 µM
  relative viability: 0.218
NCI-H520; first compound 0.02 µM
  relative viability: 0.173
HCC-78; first compound 0.0002 µM
  relative viability: 0.634
HCC-78; first compound 0.000632 µM
  relative viability: 0.493
HCC-78; first compound 0.002 µM
  relative viability: 0.461
HCC-78; first compound 0.006325 µM
  relative viability: 0.42
HCC-78; first compound 0.02 µM
  relative viability: 0.34
